Where two headings read alike, the source gives them in different places.

The subject of experiment [1] is specimen of rat aorta. As to the kind of experiment: Vasorelaxation activity in a specimen of rat aorta: contraction caused by TEA and BaCl2. The settings on record: TEA (30-45 mM) and BaCl2 (0.3 mM) contraction, read-out: constriction inhibitory ratio. The protocol:
Vasorelaxation activity in a specimen of rat aorta Effects on contraction caused by tetraethylammonium chloride (TEA) and barium chloride (BaCl2)
(§1) Male Wister rats (10 to 13 week old were employed for the experiment. After dehematization, the aorta was excised and a ring specimen (5 mm length) was prepared. The specimen was suspended in a bath filled with oxygenated (95% O2 -5%CO2) Krebs solution (36° C.). The ring specimen was fixed at one end and the other end was connected to a transducer (Nippon Koden) for recording tension to determine the tension. After a stabilization period of one hour, TEA (30-45 mM) and BaCl2 (0.3 mM) were added to the bath to cause vasoconstriction. After the constriction had reached a steady state (after about 15 minutes), a test compound was added to the bath and its relaxation activity was measured.

In another experiment the test system is anesthetized dogs. As to the kind of experiment: Action of increasing coronary blood flow in anesthetized dogs (administration into coronary artery). Format: in vivo, dog. The settings on record: injected into coronary artery, anesthetized Beagle dogs. As to the method:
Action of increasing coronary blood flow in anesthetized dogs (Administration into coronary artery) Method: Beagle dogs (10 to 12 kg body weight) were anesthetized with pentobarbital and subjected to thoractomy under artificial respiration. A by-pass fitted with an electromagnetic flowmeter (Nippon Koden) was prepared between the left coronary artery and left carotid artery,and the volume of coronary blood flow was measured. […]
Maximal change rate against the value measured before the administration (% of basal flow) and the duration period [shown in terms of the time (T1/2) in which the activity is reduced to half] are shown in Table 67. As a result, it is apparent that the compounds of this invention show action of increasing coronary blood flow.

For experiment [2], the system named is specimen of rat aorta. As to the kind of experiment: Vasorelaxation activity in a specimen of rat aorta: contraction caused by KCl. The settings on record: read-out: constriction inhibitory ratio. As to the method: as §1
Vasorelaxation activity in a specimen of rat aorta Effects on contraction caused by potassium chloride (KCl)
The same experiment was conducted as in Experiment 1, excepting the use of KCl ([…]) instead of TEA and BaCl2

Experiment [3] deals with Spontaneously hypertensive rats. As to the kind of experiment: Hypotensive activity in rats (Tail Cuff Method), oral. The class given is in vivo. The settings on record: Rattus norvegicus, SHR. The protocol:
Hypotensive activity in rats (Tail Cuff Method)
Spontaneously hypertensive rats (SHR, male, 20 to 23 week old) were warmed up to 36° C. The blood pressure at the tail aorta was measured by the tail cuff method. The blood pressure was measured three times, i.e. before oral administration of the test compound, two hours after the administration and five hours after the administration. The test compound was orally administered in the state of a suspension in gum arabic.
Maximal, hypotensive effect against the blood pressure before the administration is shown as % pre. in Table 66. As a result, it is apparent that the compounds of this invention show hypotensive activity.

[4] abbreviates: after 2 hours, read-out: Maximal hypotensive effect against blood pressure before administration (% pre.), after 2 hours.
Setting [5] is: after 5 hours, read-out: Maximal hypotensive effect against blood pressure before administration (% pre.), after 5 hours.

As for `CC(C)(C)O/N=C(/c1cc(Cl)c(C#N)cc1O)c1c(O)ccc[n+]1[O-]` [Compound 175, (Z)-2-(5-chloro-4-cyano-2-hydroxybenzoyl)-3-hydroxy pyridine N-oxide O-t-butyloxime], the results for the inhibition at 1 µM in the experiment on specimen of rat aorta [1] and with specimen of rat aorta [2] were 100% and 4%, respectively. For the same compound, the “duration (T1/2): time in which the activity is reduced to half” value in the experiment with anesthetized dogs (10 μg/dog administration) turned out to be 34.3 min.

In the case of `CC(C)(C)O/N=C(/c1cc(C#N)c(Cl)cc1O)c1ncccc1O` [Compound 130, (Z)-2-(4-chloro-5-cyano-2-hydroxybenzoyl)-3-hydroxy pyridine O-t-butyloxime], the inhibition at 1 µM with specimen of rat aorta [1] is 100%. Besides, the “duration (T1/2): time in which the activity is reduced to half” value in the experiment on anesthetized dogs (30 ug/day) stood at 4.4 min.

For `CC(C)(C)O/N=C(/c1cc(Br)c(C#N)cc1O)c1c(O)ccc[n+]1[O-]` [Compound 129, (Z)-2-(5-bromo-4-cyano-2-hydroxybenzoyl)-3-hydroxy pyridine N-oxide O-t-butyloxime], the figures for the inhibition at 1 µM in the experiment on specimen of rat aorta [1] and with specimen of rat aorta [2] were 100% and 18%, respectively. For the same compound, the “duration (T1/2): time in which the activity is reduced to half” value with anesthetized dogs (10 μg/dog administration) is on record as 42.9 min.

For `CC(C)(C)O/N=C(/c1cc(Cl)c(Cl)cc1O)c1cccc[n+]1[O-]` [Compound 95, (Z)-2-(4,5-dichloro-2-hydroxybenzoyl)pyridine N-oxide O-t-butyloxime], the inhibition at 1 µM with specimen of rat aorta [1] worked out at 59%; in the experiment on specimen of rat aorta [2], 3%. Moreover, the inhibition at 3 µM with specimen of rat aorta [1] amounted to 71%; in the experiment on specimen of rat aorta [2] it was 12%. Moreover, in the experiment with anesthetized dogs (30 ug/day), the “duration (T1/2): time in which the activity is reduced to half” value turned out to be 4.0 min.

For the compound `CC(C)(C)O/N=C(/c1cc(C#N)c(Cl)cc1O)c1c(O)ccc[n+]1[O-]` [Compound 132, (Z)-2-(4-chloro-5-cyano-2-hydroxybenzoyl)-3-hydroxy pyridine N-oxide O-t-butyloxime], in the experiment on specimen of rat aorta [1], the inhibition at 1 µM worked out at 100%. The “duration (T1/2): time in which the activity is reduced to half” value in the experiment on anesthetized dogs (30 ug/day) came to 71.8 min.

In the case of `CC(C)(C)O/N=C(/c1cc(F)c(Cl)cc1O)c1ncccc1O` [Compound 40, (Z)-2-(4-chloro-5-fluoro-2-hydroxybenzoyl)-3-hydroxypyridine O-t-butyloxime], the inhibition at 1 µM is 85% in the experiment on specimen of rat aorta [1] and 0% with specimen of rat aorta [2]. The inhibition at 3 µM in the experiment with specimen of rat aorta [1] turned out to be 72%; in the experiment with specimen of rat aorta [2], 0%. The “duration (T1/2): time in which the activity is reduced to half” value in the experiment on anesthetized dogs (30 ug/day) is reported as 2.8 min. In addition, the inhibition in vivo at 10 mg/kg was found to be 30% in experiment [3] (setting [4]) and 11% in experiment [3] (setting [5]).

For `CC(C)(C)O/N=C(/c1cc(F)c(Cl)cc1O)c1c(O)ccc[n+]1[O-]` [Compound 56, (Z)-2-(4-chloro-5-fluoro-2-hydroxybenzoyl)-3-hydroxypyridine N-oxide O-t-butyloxime], the inhibition at 1 µM in the experiment on specimen of rat aorta [1] worked out at 100%. The “duration (T1/2): time in which the activity is reduced to half” value in the experiment with anesthetized dogs (30 ug/day) stood at 27.3 min. Further, the inhibition in vivo at 10 mg/kg in experiment [3] (setting [4]) amounted to 51%; in experiment [3] (setting [5]), 42%.

Regarding `CC(C)(C)O/N=C(/c1cc([N+](=O)[O-])ccc1O)c1ncccc1O` [Compound 27, (Z)-2-(2-hydroxy-5-nitrobenzoyl)-3-hydroxypyridine O-t-butyloxime], the “duration (T1/2): time in which the activity is reduced to half” value in the experiment on anesthetized dogs (30 ug/day) came to 2.1 min.

As to `CC(C)(C)O/N=C(/c1cc(F)c(C#N)cc1O)c1ncccc1O` [Compound 176, (Z)-2-(4-cyano-5-fluoro-2-hydroxybenzoyl)-3-hydroxyoyridine O-t-butyloxime], the inhibition at 1 µM in the experiment with specimen of rat aorta [1] was found to be 100%. Further, the “duration (T1/2): time in which the activity is reduced to half” value in the experiment with anesthetized dogs (10 μg/dog administration) came to 1.8 min.

On to `CC(C)(C)ON=C(c1cc(Cl)ccc1O)c1ncccc1O` [Compound 14], for which, in the experiment with specimen of rat aorta [1], the inhibition at 1 µM was determined as 71% and the inhibition at 3 µM stood at 90%. In the experiment with anesthetized dogs (30 ug/day), the “duration (T1/2): time in which the activity is reduced to half” value is listed as 1.6 min. Besides, in the experiment on specimen of rat aorta [2], the inhibition at 1 µM is 2% and the inhibition at 3 µM amounted to 11%.

As to `Cc1cc(O)c(/C(=N/OC(C)(C)C)c2ncccc2O)cc1Br` [Compound 61, (Z)-2-(5-bromo-2-hydroxy-4-methylbenzoyl)-3-hydroxypyridine O-t-butyloxime], in the experiment with specimen of rat aorta [1], the inhibition at 1 µM amounted to 54% and the inhibition at 3 µM is 100%. Also, the “duration (T1/2): time in which the activity is reduced to half” value in the experiment on anesthetized dogs (30 ug/day) is 2.0 min. In the experiment on specimen of rat aorta [2], the inhibition at 1 µM came out at 4% and the inhibition at 3 µM was 7%.

In the case of `COc1cc(O)c(/C(=N/OC(C)(C)C)c2ncccc2O)cc1Br` [Compound 43], the inhibition at 3 µM in the experiment with specimen of rat aorta [1] amounted to 63%; in the experiment with specimen of rat aorta [2] it was 0%. For the same compound, the inhibition at 10 µM in the experiment with specimen of rat aorta [1] was 75%; in the experiment with specimen of rat aorta [2] (10 μM), 5%. For the same compound, the “duration (T1/2): time in which the activity is reduced to half” value in the experiment on anesthetized dogs (30 ug/day) is listed as 1.7 min.

Turning to `CC(C)(C)O/N=C(/c1cc(Br)c(C#N)cc1O)c1ncccc1O` [Compound 128, (Z)-2-(5-bromo-4-cyano-2-hydroxybenzoyl)-3-hydroxy pyridine O-t-butyloxime], in the experiment on specimen of rat aorta [1], the inhibition at 1 µM stood at 100%. Besides, the “duration (T1/2): time in which the activity is reduced to half” value with anesthetized dogs (30 ug/day) came out at 6.2 min.

In the case of `CC(C)(C)O/N=C(/c1cc(Br)ccc1O)c1ncccc1O` [Compound 6, (Z)-2-(5-bromo-2-hydroxybenzoyl)-3-hydroxypyridine O-t-butyloxime], in the experiment with specimen of rat aorta [1], the inhibition at 1 µM turned out to be 62% and the inhibition at 3 µM is 82%. Further, in the experiment on anesthetized dogs (30 ug/day), the “duration (T1/2): time in which the activity is reduced to half” value turned out to be 1.5 min. In the experiment with specimen of rat aorta [2], the inhibition at 1 µM was 5% and the inhibition at 3 µM amounted to 17%.

Take `Cc1ccc(O)c(/C(=N/OC(C)(C)C)c2ncccc2O)c1` [Compound 23, (Z)-2-(2-hydroxy-5-methylbenzoyl)-3-hydroxypyridine O-t-butyloxime]: the “duration (T1/2): time in which the activity is reduced to half” value in the experiment with anesthetized dogs (30 ug/day) is 1.2 min.

With `CC(C)(C)O/N=C(/c1cc(F)c(C#N)cc1O)c1c(O)ccc[n+]1[O-]` [Compound 177, (Z)-2-(4-cyano-5-fluoro-2-hydroxybenzoyl)-3-hydroxy pyridine N-oxide O-t-butyloxime], the inhibition at 1 µM is 50% in the experiment with specimen of rat aorta [1] and 0% with specimen of rat aorta [2]. Moreover, the inhibition at 3 µM with specimen of rat aorta [1] was 100%; in the experiment on specimen of rat aorta [2], 0%. Also, in the experiment on anesthetized dogs (10 μg/dog administration), the “duration (T1/2): time in which the activity is reduced to half” value was 9.8 min.

Consider `CC(C)(C)O/N=C(/c1cc(Cl)c(C#N)cc1O)c1ncccc1O` [Compound 174, (Z)-2-(5-chloro-4-cyano-2-hydroxybenzoyl)-3-hydroxy pyridine O-t-butyloxime], for which the inhibition at 1 µM in the experiment with specimen of rat aorta [1] is 100%. In addition, the “duration (T1/2): time in which the activity is reduced to half” value in the experiment with anesthetized dogs (10 μg/dog administration) is listed as 4.4 min.

Turning to `CC(C)(C)O/N=C(/c1cc(F)c(F)cc1O)c1cccc[n+]1[O-]` [Compound 100, (Z)-2-(4,5-difluoro-2-hydroxybenzoyl)pyridine N-oxide O-t-butyloxime], in the experiment with specimen of rat aorta [1], the inhibition at 1 µM amounted to 52% and the inhibition at 3 µM was 100%. The “duration (T1/2): time in which the activity is reduced to half” value in the experiment with anesthetized dogs (30 ug/day) was found to be 3.3 min. Further, in the experiment with specimen of rat aorta [2], the inhibition at 1 µM is 4% and the inhibition at 3 µM came to 11%.

With `CC(C)(C)O/N=C(/c1cc(F)c(Cl)cc1O)c1cccc[n+]1[O-]` [Compound 103, (Z)-2-(4-chloro-5-fluoro-2-hydroxybenzoyl)pyridine N-oxide O-t-butyloxime], in the experiment on specimen of rat aorta [1], the inhibition at 3 µM was 29% and the inhibition at 10 µM came to 47%. Besides, in the experiment with anesthetized dogs (30 ug/day), the “duration (T1/2): time in which the activity is reduced to half” value is reported as 3.0 min.

In the case of `CC(C)(C)O/N=C(/c1cc(F)c(F)cc1O)c1c(O)ccc[n+]1[O-]` [Compound 59, (Z)-2-(4,5-difluoro-2-hydroxybenzoyl)-3-hydroxypyridine N-oxide O-t-butyloxime], in the experiment on specimen of rat aorta [1], the inhibition at 1 µM came out at 6% and the inhibition at 3 µM turned out to be 100%. The “duration (T1/2): time in which the activity is reduced to half” value in the experiment on anesthetized dogs (30 ug/day) came out at 15.1 min. In experiment [3] (setting [4]), the inhibition in vivo at 1 mg/kg turned out to be 22% and the inhibition in vivo at 10 mg/kg was 45%. In experiment [3] (setting [5]), the inhibition in vivo at 1 mg/kg stood at 10% and the inhibition in vivo at 10 mg/kg came to 54%.

In the case of `CC(C)(C)O/N=C(/c1cc(Br)c(F)cc1O)c1c(OC(=O)C(C)(C)C)ccc[n+]1[O-]` [Compound 171, (Z)-2-(5-bromo-4-fluoro-2-hydroxybenzoyl)-3-pivaloyloxypyridine N-oxide O-t-butyloxime], in the experiment on anesthetized dogs (10 μg/dog administration), the “duration (T1/2): time in which the activity is reduced to half” value worked out at 23.4 min.
